Measurements reported in the supplement of paper PMC5579334.
± gives the standard deviation of the averaged measurements.

Legend:
HS-Sch-2 [1] = test: relative IC50 (inflection point of fitted dose-response curve, CellTiter-Glo viability, 72 h; top asymptote may be below 50% inhibition); higher = less potent
Outline: (§1)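 MPNST cell lines and primary human Schwann cells were seeded at 750–1000 cells per well into 384-well plates preprinted with each compound at five concentrations in 10-fold steps, then incubated 72 h at 37 °C, 5% CO2. CellTiter-Glo ATP luminescence gave viability, scaled between vehicle and positive-control wells, with duplicates averaged where present. Curves were fitted with a four-parameter logistic model. Percent inhibition refers to the top concentration, while drug sensitivity score and relative IC50, censored at the top concentration, come from these fits.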

HS-PSS [2] = test: as above
Outline: as §1

YST-1 [3] = test: as above
Outline: as §1

HS-PSS [4] = test: relative IC50 (inflection point of fitted dose-response curve, CellTox-Green cytotoxicity, 72 h; top asymptote may be below 50%); higher = less potent
Outline: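 For 72 h at 37 °C, MPNST cell lines and primary human Schwann cells were exposed in 384-well plates to five 10-fold compound dilutions. CellTox-Green, added before seeding at a final 1:1000 dilution, gave fluorescence from DNA released by disrupted cells. Signals were scaled to vehicle and positive-control wells, cultures failing plate quality control were left out, and four-parameter logistic fits were applied. Relative IC50 and drug sensitivity score were derived from the fits, with IC50 censored at the top concentration.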

STS26T = test: drug sensitivity score (DSS, CellTiter-Glo viability, 72 h) (DSS (dimensionless)); higher = more sensitive; extreme values may be limits of the assay
Outline: as §1

[5] = tested on: HSC2 (primary human Schwann cells); test: as above
Outline: as §1

HS-Sch-2 [6] = test: as above
Outline: as §1

HS-PSS [7] = test: as above
Outline: as §1

[8] = tested on: HSC1 (primary human Schwann cells); test: as above
Outline: as §1

ST8814 = test: as above
Outline: as §1

S462 = test: as above
Outline: as §1

S1507-2 = test: as above
Outline: as §1

YST-1 [9] = test: as above
Outline: as §1

SMILES | relative IC50 (HS-Sch-2 [1]) | relative IC50 (HS-PSS [2]) | relative IC50 (YST-1 [3]) | relative IC50 (HS-PSS [4]) | further results
COc1ccc(CCc2nc3cc(-c4c(C)noc4C)ccc3n2C[C@H](C)N2CCOCC2)cc1Cl [SGC-CBP30] | 3.85 µM | 9.71 µM | 3.97 µM | > 25 µM | –
CN1CCC(CNc2ccc3ncc(-c4cccc(OC(F)(F)F)c4)n3n2)CC1 [SGI-1776] | 2.37 µM | 2.47 µM | 1.66 µM | 2.51 µM | –
Cn1cc(-c2ccc3nnc(Sc4ccc5ncccc5c4)n3n2)cn1 [SGX-523] | > 5 µM | > 5 µM | > 5 µM | > 5 µM | –
CN(CC(=O)N(Cc1ccc(C2CCCCC2)cc1)c1ccc(C(=O)O)cc1)S(=O)(=O)c1c(F)c(F)c(F)c(F)c1F [SH-4-54] | 5.27 µM | 7.51 µM | 3.26 µM | 7.28 µM | –
CC(C)NC(=O)COc1cccc(-c2nc(Nc3ccc4[nH]ncc4c3)c3ccccc3n2)c1 [SLx-2119] | 0.653 µM | 1.04 µM | 0.193 µM | > 5 µM | –
CCc1c2c(nc3ccc(O)cc13)-c1cc3c(c(=O)n1C2)COC(=O)[C@]3(O)CC [SN-38] | 0.00922 µM | 0.036 µM | 0.00463 µM | 0.0297 µM | –
O=C(/C=C\n1cnc(-c2cc(C(F)(F)F)cc(C(F)(F)F)c2)n1)NNc1cnccn1 [Selinexor] | 0.211 µM | 0.404 µM | 0.115 µM | 1.46 µM | –
O=C(O)c1ccc2c(c1)nc(Nc1cccc(Cl)c1)c1ccncc12 [Silmitasertib] | 3.54 µM | 2.58 µM | 2.36 µM | > 10 µM | –
CCC(C)(C)C(=O)O[C@H]1C[C@@H](C)C=C2C=C[C@H](C)[C@H](CC[C@@H]3C[C@@H](O)CC(=O)O3)[C@H]21 [Simvastatin] (max concentration tested 10000 nM) | – | – | – | – | drug sensitivity score (STS26T): 0.448; drug sensitivity score [5]: 9.94; drug sensitivity score (HS-Sch-2 [6]): 0; drug sensitivity score (HS-PSS [7]): 3.55; drug sensitivity score [8]: 8.22; drug sensitivity score (ST8814): 0.23; drug sensitivity score (S462): 2.409 ± 0.0062; drug sensitivity score (S1507-2): 0.00035 ± 0.00049; drug sensitivity score (YST-1 [9]): 0
CC(C)(O)CC(=O)NCCn1ccc2ncnc(Nc3ccc(Oc4cccc(C(F)(F)F)c4)c(Cl)c3)c21 [TAK-285] | > 2.5 µM | > 2.5 µM | > 2.5 µM | > 2.5 µM | –
O=c1sn(-c2cccc3ccccc23)c(=O)n1Cc1ccccc1 [Tideglusib] | > 3 µM | > 3 µM | > 3 µM | > 3 µM | –
Cc1cc(Nc2cc(N3CCN(C)CC3)nc(Sc3ccc(NC(=O)C4CC4)cc3)n2)n[nH]1 [Tozasertib] | 0.552 µM | 0.315 µM | 0.0421 µM | > 10 µM | –
NC(=S)N/N=C/c1ncccc1N [Triapine] | 1.69 µM | 2.25 µM | 3.88 µM | 3.26 µM | –
O=C(O)CSc1cc(NS(=O)(=O)c2ccc(Br)cc2)c2ccccc2c1O [UMI-77] | 5.66 µM | 26.9 µM | 3.04 µM | 30.5 µM | –
CCCCNc1ncc(C(=O)NCc2ccc(-n3ccnc3)cc2)c(NC2CCC(O)CC2)n1 (stereo not drawn) [UNC2881] | > 2.5 µM | 0.338 µM | 0.345 µM | > 2.5 µM | –
CC(C)Nc1cc(-c2c[nH]c(C(=O)N[C@H](CO)c3cccc(Cl)c3)c2)c(Cl)cn1 [Ulixertinib] | 1.29 µM | 3.53 µM | 1.38 µM | > 10 µM | –
Oc1ncc(N(CCCl)CCCl)c(O)n1 [Uramustine] | > 10 µM | > 10 µM | > 10 µM | > 10 µM | –
CCCC(CCC)C(=O)O [Valproic acid] | > 1000 µM | > 1000 µM | 306 µM | > 1000 µM | –
C[C@@H]1COC(Nc2ccc3ncnc(Nc4ccc(OCc5nccs5)c(Cl)c4)c3c2)=N1 [Varlitinib] | 1.64 µM | 0.821 µM | 0.247 µM | > 10 µM | –
CCn1c(=O)c(-c2cc[nH]n2)cc2c(C)nc(N)nc21 [Voxtalisib] | 2.18 µM | 2.33 µM | 1.12 µM | > 10 µM | –
COc1cc2c(Nc3ccc(Cl)c(Cl)c3F)ncnc2cc1OC[C@H]1C[C@@H]2CN(C)C[C@@H]2C1 [XL-647] | 0.367 µM | 0.406 µM | 0.101 µM | > 1 µM | –
c1ccc(Cn2c(-c3ccc(OC[C@H](C4CCNCC4)n4c(-c5ccccc5)nc5ccccc54)cc3)nc3ccccc32)cc1 [deltarasin] | 3.06 µM | 2.47 µM | 3.36 µM | 2.47 µM | –
